Source: patent US7393640B2, “Terminal-phosphate-labeled nucleotides with new linkers” (GE Healthcare Bio-Sciences Corp., priority 2003, dated 2008)
Read-outs that look alike come from different tables or passages of the source.

What was measured:
various polymerases = assay: Effect of MnCl2 on incorporation of terminal-phosphate labeled nucleotide on oligo dT/poly dA; type: biochemical; conditions: 10 uM nucleotide, 60° C.
Method: Oligo dT (35mer) was annealed with poly dA by mixing equal volumes of each at 20 uM conc, and incubating at 80° C. for 4 min and instant cooling on ice. 1 ul of this solution was mixed into a 20 ul reaction containing 25 mM Hepes, pH 8.0, 0.01% Tween-20, 10 uM dT4P-DDAO, 0.005 u/ul BAP, a polymerase at concentrations shown in FIG. 7 and various concentrations of MnCl2—and MgCl2.

[1] = tested on: Thermo Sequenase I DNA polymerase; assay: Relative incorporation of phosphate labeled versus base labeled nucleotides in magnesium or manganese buffer; type: biochemical; conditions: 5 mM MnCl2 vs 5 mM MgCl2, 1 μM nucleotide, 50 degrees C., 10 minutes
Method: Reactions (10 μl, 50 degrees C., 10 minutes) contained 1× reaction buffer (25 mM HEPES 8.5, 0.01% tween-20), 3 μg activated DNA (Chromosomal DNA), 5 mM either MnCl2 (circles) or MgCl2 (squares), 1 μM either FAM-TAM-11-ddTTP (dashed lines) or ddT4P-DDAO (solid lines), with a serial 4 fold dilution of Thermo Sequenase I™ DNA polymerase from 10 units per reaction down to 0.01 units per reaction. Results (FIG. 3) were plotted out both on a linear scale and logarithmic scale to show both linearity with enzyme and relative incorporation efficiency.

[2] = tested on: cloned DNA polymerase I genetically engineered to eliminate 3′-5′ exonuclease activity, 5′-3′ exonuclease activity and discrimination against …; assay: Template-directed incorporation of gamma phosphate-labeled ddNTP with shrimp alkaline phosphatase, fluorescence read-out; type: biochemical; conditions: 2 μM nucleotide, 5 mM MgCl2, 0.25 mM MnCl2, shrimp alkaline phosphatase
Method: Reactions were assembled at room temperature (23° C.) using the dideoxynucleotide of Example (1).
Referring now to FIG. 1, for template 1 (SEQ ID NO: 2) in the present example, DNA polymerase would be expected to extend the primer with labeled ddGTP. Similarly, for template 2 (SEQ ID NO: 3) in FIG. 1, DNA polymerase would be expected to extend the primer with ddATP, but not with labeled ddGTP.
(§1) Reaction conditions: A 70 μl reaction containing 25 mM Tris, pH 8.0, 5% glycerol 5 mM MgCl2, 0.5 mM beta-mercaptoethanol, 0.01% tween-20, 0.25 units shrimp alkaline phosphatase, 100 nM primer annealed to template (the next template nucleotide is either dCMP or dTMP, as indicated), and 2 μM ddGTP-CF3-Coumarin was assembled in a quartz fluorescence ultra-microcuvet in a LS-55 Luminescence Spectrometer (Perkin Elmer), operated in time drive mode. Excitation and emission wavelengths are 390 nm and 500 nm respectively. Slit widths were 5 nm for excitation slits, 15 nm for emission slits. The reaction was initiated by the addition of 0.35 μl (11 units) of a cloned DNA polymerase I genetically engineered to eliminate 3′-5′ exonuclease activity, 5′-3′ exonuclease activity and discrimination against dideoxynucleotides and 0.25 mM MnCl2.
Reactions were assembled at room temperature (23° C.) using the dideoxynucleotide of Example (2).
Referring now to FIG. 2, for template 2 (SEQ ID NO: 3) in the present example, DNA polymerase would be expected to extend the primer with labeled ddATP. Similarly, for template 1 (SEQ ID NO: 2) in FIG. 2, DNA polymerase would be expected to extend the primer with ddGTP, but not with labeled ddATP.
as §1, with “template,” for “template (the next template nucleotide is either dCMP or dTMP, as indicated),”, “ddATP-CN-Coumarin” for “ddGTP-CF3-Coumarin”, “410” for “390”, “450” for “500”

Phi 29 exo-polymerase = conditions: 0.7 mM MnCl2 only, 25 uM nucleotide, template SEQ ID NO: 4 (FIG. 6)
Method: Using the same primer as in example 9 and template (SEQ ID NO: 4), incorporation of dCTP-DAH-ROX at various times after the reaction was initiated, was investigated. Assay conditions were as follows: Total reaction volume: 30 ul containing 100 nM primer/template, 100 nM Phi 29 exo-polymerase, 50 mM Tris pH 7.5, 75 mM KCl, 0.7 mM MnCl2, 0.1 mM DTT, 0.3 mg/ml BSA. Reaction was initiated by addition of ROX-dCTP to a conc. of 25 uM.

[3] = Primer: Template 1 (SEQ ID NO: 2), next template nucleotide dC
[4] = Primer: Template 2 (SEQ ID NO: 3), next template nucleotide dT

Chain of Phi 29 exo-polymerase (P03680 190-575 limits assumed): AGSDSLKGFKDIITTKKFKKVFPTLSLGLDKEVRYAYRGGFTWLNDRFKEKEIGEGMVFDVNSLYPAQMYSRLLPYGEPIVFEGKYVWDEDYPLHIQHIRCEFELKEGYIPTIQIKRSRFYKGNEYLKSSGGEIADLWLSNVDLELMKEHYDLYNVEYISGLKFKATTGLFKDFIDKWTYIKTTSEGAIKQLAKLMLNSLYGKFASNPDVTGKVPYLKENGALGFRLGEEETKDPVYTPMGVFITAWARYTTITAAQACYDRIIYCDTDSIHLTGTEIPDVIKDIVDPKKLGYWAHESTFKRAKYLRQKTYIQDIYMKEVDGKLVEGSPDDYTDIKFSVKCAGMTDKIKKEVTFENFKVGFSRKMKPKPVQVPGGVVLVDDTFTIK

Cc1cn([C@H]2C[C@H](O)[C@@H](COP(=O)(O)OP(=O)(O)OP(=O)(O)OP(=O)(O)Oc3ccc4c(c3)C(C)(C)C3=C(Cl)C(=O)C(Cl)=CC3=N4)O2)c(=O)[nH]c1=O [dT4P-DDAO, 2′-Deoxythymidine-5′-(δ-7-(9H-(1,3-dichloro-9,9-dimethylacridin-2-one)))tetraphosphate] was tested, and the “rate of incorporation in the absence of MnCl2” value (various polymerases; 15 or 30 minutes (FIG. 7)) was “extremely slow” and the “effect of MnCl2, alone or in the presence of MgCl2, on the rate of incorporation” value (various polymerases; 15 or 30 minutes, all the polymerases tested (FIG. 7)) was “major positive impact on the rate of incorporation”.
For Cc1cn([C@H]2CC[C@@H](COP(=O)(O)OP(=O)(O)OP(=O)(O)OP(=O)(O)Oc3ccc4c(c3)C(C)(C)C3=C(Cl)C(=O)C(Cl)=CC3=N4)O2)c(=O)[nH]c1=O [ddT4P-DDAO, δ-9H(1,3-dichloro-9,9-dimethylacridin-2-one-7-yl)-dideoxythymidine-5′-tetraphosphate], the “increase in incorporation efficiency in the manganese buffer relative to the magnesium buffer” value [1] was 28 fold.
For N#Cc1cc2ccc(OP(=O)(O)OP(=O)(O)OP(=O)(O)OC[C@@H]3CC[C@H](n4cnc5c(N)ncnc54)O3)cc2oc1=O [gamma labeled ddATP, γ-(3-cyanocoumarinyl)dideoxyadenosine-5′-triphosphate], the dye emission [2, 3] was “No detectable dye emission” and the dye emission [2, 4] was “dye emission was detected”.
With Nc1nc2c(ncn2[C@H]2CC[C@@H](COP(=O)(O)OP(=O)(O)OP(=O)(O)Oc3ccc4c(C(F)(F)F)cc(=O)oc4c3)O2)c(=O)[nH]1 [gamma labeled ddGTP, γ-(4-trifluoromethylcoumarinyl)dideoxyguanosine-5′-triphosphate] the dye emission [2, 3] was “dye emission was detected” and the dye emission [2, 4] was “No detectable dye emission”.
In the case of “ROX-amidoheptyl-gamma-amido-deoxycytidine-triphosphate [dCTP-DAH-ROX]”, the misincorporation (Phi 29 exo-polymerase) is reported as “no misincorporation takes place” and the misincorporation (Phi 29 exo-polymerase; listed as dCTP-γ-ROX) is reported as “No misincorporation was observed”.
